# Data as given in patent US20050222258A1, “Pharmaceuticals comprising shikonins as active constituent” (priority 2003, published 2005).
# Experiments:
# HBsAg = experiment: microbe, parasite or virus in culture; conditions: Hepatitis B virus, read-out: average inhibitory rate for HBsAg
# HBeAg = experiment: microbe, parasite or virus in culture; conditions: Hepatitis B virus, read-out: average inhibitory rate for HBeAg
smiles,measurement,setting,value
"CC(C)=CCC(OC(=O)C=C(C)C)C1=CC(=O)c2c(O)ccc(O)c2C1=O (stereo not drawn) [β,β-dimethylacrylshikonin]",inhibition at 30 µg/mL,HBsAg,96.3%
same,inhibition at 30 µg/mL,HBeAg,91.6%
